Assay results: US20050209157A1, “Short bioactive peptides and methods for their use” (priority 2001, published 2005)
No end group written: not given here.

Legend:
PC3 = assay: Anti-cancer assay, MTT, LD50; format: cell-based; settings: 24 hours with peptide, prostate adenocarcinoma
Description: (§1) Numbers are LD50 values (μg/mL).

HeLaS3 = assay: Anti-cancer assay, MTT, LD50; format: cell-based; settings: 24 hours with peptide, cervical carcinoma
Description: as §1

MCF7 = assay: Anti-cancer assay, MTT, LD50; format: cell-based; settings: MCF7 breast adenocarcinoma line, MTT, 24 hours with peptide
Description: as §1

H1299 = assay: Anti-cancer assay, MTT, LD50; format: cell-based; settings: 24 hours with peptide, lung large cell carcinoma
Description: as §1

SW480 = assay: Anti-cancer assay, MTT, LD50; format: cell-based; settings: SW480 colon adenocarcinoma line, 24 hours with peptide
Description: as §1

BMKC = assay: Anti-cancer assay, MTT, LD50; format: cell-based; settings: BMKC cloned melanoma line, 24 hours with peptide
Description: as §1

in vitro = settings: human, WI38 normal lung fibroblast cells, LD50 WI38, WI38 normal lung fibroblast line, MTT, 24 hours with peptide
[1] = tested on: Staphylococcus aureus ATCC 6538; assay: Antimicrobial assay I, MIC by OD measurement; format: cell-based; settings: 37° C. for 24 hours, absorbance 620 nm
[2] = tested on: Pseudomonas aeruginosa ATCC 9027; assay: Antimicrobial assay I, MIC by OD measurement; format: cell-based; settings: 37° C. for 24 hours, absorbance 620 nm
WI38 = settings: MTT, 24 hours with peptide; normal fibroblast line
[3] = tested on: human red blood cells (RBC); assay: in vitro; format: cell-based; settings: hemolytic assay, concentration at 50% hemolysis, 1 hour at 37° C.
[4] = tested on: yeast (Saccharomyces cerevisiae); assay: Antimicrobial assay I, yeast assay in RPMI 1640; format: cell-based; settings: RPMI 1640 media

Substance | PC3 LD50 (PC3) | HeLaS3 LD50 (HeLaS3) | LD50 MCF7 (MCF7) | H1299 LD50 (H1299) | LD50 SW480 (SW480) | LD50 BMKC (BMKC) [µg/mL] | CC50 at 24 h (in vitro) [µg/mL] | staph6538 (MIC) [1] | paerug9027 (MIC) [2] | WI38 LD50 (WI38) [µg/mL] | LD50 [3] | yeast (MIC or MFC) [4]
FAKIIAKIAKIAKKIL-NH2 [P139] | > (> indicates greater than 1000) | > (> indicates greater than 1000) | 625 µg/mL | 850 µg/mL | > (> indicates greater than 1000) | 525 | 550 | 50 µg/mL | 25 µg/mL | 550 | > (> indicates greater than 1000) | 200 µg/mL
FAKKLAKKLAKAAL-NH2 [P76, FAKKLAKKLAKAAL-NH2] | 675 µg/mL | 380 µg/mL | 970 µg/mL | 860 µg/mL | 400 µg/mL | 750 | 445 | 10 µg/mL | 100 µg/mL | 445 | > (> indicates greater than 1000) | 200 µg/mL
FAKLLAKLAKKSL-NH2 [P127] | > (> indicates greater than 1000) | 610 µg/mL | 440 µg/mL | 770 µg/mL | 400 µg/mL | 535 | 760 | 100 µg/mL | 25 µg/mL | 760 | > (> indicates greater than 1000) | 100 µg/mL
FAKLLFKALKKAL-NH2 [P112, FAKLLFKALKKAL-NH2] | 640 µg/mL | 660 µg/mL | 500 µg/mL | 470 µg/mL | 800 µg/mL | 445 | 420 | 50 µg/mL | 200 µg/mL | 420 | > (> indicates greater than 1000) | 100 µg/mL
FAKLLAKLAKAKA-NH2 [P95] | > (> indicates greater than 1000) | > (> indicates greater than 1000) | > (> indicates greater than 1000) | > (> indicates greater than 1000) | > (> indicates greater than 1000) | 820 | 250 | 100 µg/mL | 200 µg/mL | 250 | > (> indicates greater than 1000) | > (> indicates greater than 200 μg/mL)
FAKLAKKALAKLL-NH2 [P148] | > (> indicates greater than 1000) | > (> indicates greater than 1000) | 315 µg/mL | 660 µg/mL | > (> indicates greater than 1000) | 330 | 380 | > (> indicates greater than 200 μg/mL) | 200 µg/mL | 380 | > (> indicates greater than 1000) | 200 µg/mL
FALALKLAKKL-NH2 [P178] | > (> indicates greater than 1000) | > (> indicates greater than 1000) | 770 µg/mL | > (> indicates greater than 1000) | > (> indicates greater than 1000) | 640 | 405 | 200 µg/mL | 100 µg/mL | 405 | > (> indicates greater than 1000) | > (> indicates greater than 200 μg/mL)
FAKLLAKKLL-NH2 [P57] | > (> indicates greater than 1000) | 830 µg/mL | > (> indicates greater than 1000) | > (> indicates greater than 1000) | 740 µg/mL | 740 | 900 | 100 µg/mL | 200 µg/mL | 900 | > (> indicates greater than 1000) | 200 µg/mL
VALALKALKKL-NH2 [P180] | > (> indicates greater than 1000) | 760 µg/mL | 950 µg/mL | > (> indicates greater than 1000) | 600 µg/mL | 770 | 940 | 200 µg/mL | > (> indicates greater than 200 μg/mL) | 940 | > (> indicates greater than 1000) | > (> indicates greater than 200 μg/mL)
FAKLFAKLAKKFAL-NH2 [P121, FAKLFAKLAKKFAL-NH2] | > (> indicates greater than 1000) | 830 µg/mL | 400 µg/mL | 460 µg/mL | 800 µg/mL | 670 | 625 | 50 µg/mL | > (> indicates greater than 200 μg/mL) | 625 | > (> indicates greater than 1000) | 100 µg/mL
